Several values for one entry are separate records, joined by “and”; a condition that tells them apart may be missing. Identical values can stand only once.
Experiments:
[1] = tested on: irradiated (490 rads) C3H/HeN mice with infected subcutaneous pouch; test: Immunocompromised mouse model of contained infection: ceftriaxone treatment, spleen CFU at death and survival; format: in vivo; details: Ceftriaxone 0.3 mg/mouse daily
Description: In order to test therapies intended at controlling systemic inflammatory response rather than the infection, it is desirable to control the infection to avoid problems that can derive from a high bacterial load. To this end we controlled the infection by using antibiotics. In this experiment, a subcutaneous pouch was induced in C3H/HeN animals. […] At Day 6 after induction of the pouches, mice were infected with 4.5×10^6 CFU/mouse. As animals became sick (as detected by a ruffled fur), each animal was assigned to one of two different groups, i.e. a group to be treated with 0.3 mg/mouse of ceftriaxone and a group to stay untreated. […] Once an animal was assigned to the treated group, it received a daily injection of antibiotic until the animal succumbed to death. […] At death, spleens were removed from the animals, homogenized in PBS, and the CFU determined.
The bacterial counts in the spleens of treated animals are about 3 logs of magnitude lower than in the untreated animals. The conditions employed should therefore be useful for testing therapies to prevent the progression from sepsis to septic shock in the absence of overwhelming bacterial infection.

[2] = tested on: irradiated C3H/HeN mice infected with E. coli strain Bort; test: Ethyl pyruvate plus ceftriaxone, survival in immunocompromised infected mouse model; format: in vivo; details: for Bacterial counts / Status / Status.dead / Time death: one animal per row, listed as EP; for Status: 1 = dead, 0 = alive
Procedure: (§1) Mice were pouched six days and irradiated five days before infection. Eight- to 12-week-old C3H/HeN mice were anesthetized with isofluorane and wiped with alcohol in the area caudal to their ears. Pouches were created at this site by subcutaneous injection of 2-3 ml of air, followed by the subcutaneous injection of 0.2 ml of a 0.5% solution of croton oil in olive oil. Twenty-four hours later, mice were irradiated using a gamma irradiator. Five days after irradiation, animals were infected with E. coli strain Bort by direct injection of the bacterial suspension into the pouches. After infection, animals were treated as described for each individual experiment. Animals were checked daily for signs of pain and distress, including diarrhea, lethargy, ruffled fur, lack of appetite, and poor body condition. Animals were euthanized when they became very lethargic and unable to move when touched.
Mice were pouched and irradiadiated as described above. The mice were assigned to four different groups: (1) ten mice were untreated (control mice); (2) nineteen mice were treated with 0.1 mg/mouse of ceftriaxone (CEF) once every 24 hours […] (saline control mice); (3) twenty mice were treated with 0.1 mg/mouse ceftriaxone and 35 mg/ml ethyl pyruvate once every 24 hours for four days (EP mice); and (4) ten mice were treated as for group (3) and received an additional injection of 35 mg/ml of EP at 30 and 54 hour timepoints (EP 2x mice).

[3] = tested on: irradiated C3H/HeN mice infected with E. coli strain Bort; test: VEGF receptor antagonists (Compounds I and II): survival, bacterial counts, time of euthanasia; format: in vivo, mouse; details: for Bacterial counts: blood bacterial count of individual animal bled at 40 hours after infection, 100 mg/Kg injected 16 hours after infection, FD given where no count; for Bacterial counts / Time of Death: 100 mg/kg; for Status: individual animal survival status code (1 or 0, not defined; 0 only at 168); for Time of Death: individual animal, time of death/euthanasia (hours after infection), 100 mg/Kg, ceftriaxone 50 ug/mouse at 40 hours
Procedure: as §1, with “touched. It was previously determined that when mice reach such conditions they will die within 6-8 hours.” for “touched.”
Using the procedure described above, 76 mice were pouched, irradiated (495 rads) and infected (0.2 ml of 0.1 OD 600).
(II) (see WO 98/13354 and WO 00/132651). At 40 hours after infection, animals were bled and injected with the same solutions to which ceftriaxone was added to yield a solution containing 50 ug/mouse. Animals were injected with the solutions (no ceftriaxone) for 2 more days. Blood was used for BC and plasma. Two aliquots of 20 ul and an extra aliquot were prepared and stored at −80.

CO/N=C(\C(=O)N[C@@H]1C(=O)N2C(C(=O)O)=C(CSc3nc(=O)c(=O)[nH]n3C)CS[C@H]12)c1csc(N)n1 [Ceftriaxone, ceftriaxone]
CFU/spleen, Average ([1]; average of treated animals): 7.01E+05 CFU/spleen | CFU/spleen ([1]; spleens removed at death, single animals): 2.60E+04 CFU/spleen and 3.00E+03 CFU/spleen and 8.00E+03 CFU/spleen and 8.00E+05 CFU/spleen (2×) and 1.80E+04 CFU/spleen and 6.00E+02 CFU/spleen and 1.20E+04 CFU/spleen and 2.00E+03 CFU/spleen and 4.00E+04 CFU/spleen and 6.00E+06 CFU/spleen

CCOC(=O)C(C)=O [ethyl pyruvate]
survival relative to nontreated or CEF-treated controls ([2]; 35 mg/ml ethyl pyruvate with 0.1 mg/mouse ceftriaxone, every 24 hours for four days (EP) or with extra doses at 30 and 54 h (EP 2x)): significant survival advantage | Bacterial counts ([2]; Group 3 (EP mice): 0.1 mg/mouse ceftriaxone and 35 mg/ml ethyl pyruvate once every 24 hours for four days): 1.0E+04 and 3.0E+04 and 1.2E+05 and 2.0E+05 (3×) and 3.0E+05 (2×) and 1.3E+04 and 2.5E+04 and 3.5E+04 and 6.5E+04 and 7.6E+04 and 8.0E+04 and 1.2E+04 and 2.0E+03 and 1.6E+03 (2×) and 1.6E+04 and 4.0E+04 | Status ([2]; Group 3 (EP mice)): 1 (19×) and 0 | Status.dead ([2]; Group 3 (EP mice)): DEAD (19×) and ALIVE | Time death ([2]; Group 3 (EP mice)): 48 (6×) and 54 (8×) and 56 and 78 and 102 and 168 and 174 (2×) | Bacterial counts ([2]; Group 4 (EP 2x mice): as group 3 plus additional 35 mg/ml EP at 30 and 54 hour timepoints): 2.0E+05 and 5.0E+04 (2×) and 3.0E+04 (2×) and 1.0E+04 and 1.7E+03 and 0.0E+00 and 1.0E+03 and 2.4E+03 | Status ([2]; Group 4 (EP 2x mice)): 1 (7×) and 0 (3×) | Status.dead ([2]; Group 4 (EP 2x mice)): DEAD (7×) and ALIVE (3×) | Time death ([2]; Group 4 (EP 2x mice)): 48 and 54 and 62 and 72 and 96 and 168 (2×) and 174 (3×)

CC(C)(N)c1ccc(-c2nc(Nc3ccc(CCN4CCOCC4)cc3)ncc2C#N)cc1 [Compound I]
Bacterial counts [3]: 1.3E+07 and 4.0E+06 and 3.0E+06 and 2.0E+06 and 1.0E+06 and 3.0E+05 (3×) and 2.0E+05 (2×) and 3.0E+04 and 1.7E+03 and 1.0E+03 and 1.0E+02 (5×) and <100 (7×) | Status [3]: 1 (27×) and 0 | Time of Death [3]: 40 (3×) and 46 (5×) and 48 (4×) and 64 and 88 and 94 and 112 (8×) and 160 and 96 (3×) and 168

COc1cc2c(Nc3ccc(Br)cc3F)ncnc2cc1OCC1CCN(C)CC1 [Compound II]
Bacterial counts [3]: 1.0E+09 and 1.0E+07 and 9.0E+06 and 3.0E+06 and 2.0E+06 (3×) and 5.0E+05 and 3.0E+05 (2×) and 5.0E+04 and 3.0E+04 and 1.6E+04 and 2.0E+03 and 1.0E+02 (2×) and <100 (9×) | Status [3]: 1 (23×) and 0 (4×) | Time of Death [3]: 40 (2×) and 46 (4×) and 48 (7×) and 64 (4×) and 160 (3×) and 112 (3×) and 168 (4×)
